Reference: patent US11174234B2, “Crystal form of 4-phenylthiazole derivative and preparation method thereof” (SICHUAN KELUN PHARMACEUTICAL RESEARCH INSTITUTE CO., LTD., priority 2018, dated 2021)
Converted amounts (≈) assume the structure as drawn.

Tests used:
[1] = Solubility test (HPLC external standard method); assay type: physicochemical
Procedure: In this Experimental Example, the solubility of two crystal form in different pH of simulated human gastric juice were tested to study the solubility of the crystal forms.
Solubility test: HPLC external standard method
(§1) Chromatographic column: octadecyl silane bonded silica gel as filler
Mobile phase: phosphate buffer (pH3.5):methanol:acetonitrile=2:9:9 (volume ratio)
Detection wavelength: 215 nm
Excess amount of Crystal Form D and Crystal Form Y were placed in tubes with plug, to which were added 10 ml of water (purified water), hydrochloric acid solution of pH 1.2, hydrochloric acid solution of pH 2.0, acetate buffer of pH 4.0, phosphate buffers of pH 4.5, 5.0, 6.8, 8.0, respectively, and vibrated on 37° C. water bath, then filtered. The subsequent filtrate was subjected to HPLC assay.
The preparations of various pH buffers can be referred to “Guideline for Dissolution Test of Normal Oral Solid Formulation” issued by Center for Drug Evaluation of China Food and Drug Administration for dissolution medium, and are detailed as follows:
The hydrochloric acid solution of pH 1.2 is prepared by diluting 7.65 ml of hydrochloric acid with water to 1000 ml and mixing well.
The hydrochloric acid solution of pH 2.0 is prepared by diluting 1.17 ml of hydrochloric acid with water to 1000 ml and mixing well.
The acetate buffer of pH 4.0 is prepared by diluting mixture of 1.22 g of sodium acetate with 20.5 ml of 2 mol/L acetic acid solution with water to 1000 ml and mixing well. The 2 mol/L acetic acid solution is prepared by diluting 114 mL of glacial acetic acid with water to 1000 ml.
The phosphate buffers of pH 4.5, 5.0, 6.8, 8.0 are prepared by adjusting pH of 0.2 mol/L monopotassium phosphate solution with 0.2 mol/L sodium hydroxide solution to pH 4.5, 5.0, 6.8, 8.0, respectively. The 0.2 mol/L monopotassium phosphate solution is prepared by dissolving 27.22 g of monopotassium phosphate in water and diluting to 1000 mL. The 0.2 mol/L sodium hydroxide solution is prepared by dissolving 8.00 g of sodium hydroxide in water and diluting to 1000 mL.

[2] = High temperature stability test; assay type: physicochemical; conditions: 60° C.; for Purity Change: sealed glass bottle
Excerpt: (§2) In this Experimental Example, high temperature, high humidity tests were used to study the chemical stability of the crystal form according to the invention.
(§3) Purity test: HPLC method (Chinese Pharmacopoeia 2015, Volume IV, general principles 0512)
as §1
(§4) Mobile phase A: 0.02 mol/L phosphate buffer (pH 3.0)-methanol-acetonitrile
(§5) Mobile phase B: methanol-acetonitrile-water
(§6) Detection wavelength: 215 nm.
(§7) Elution condition: gradient elution
The Crystal Form D of the compound of formula I was placed in a sealed and clean glass bottle and placed in 60° C. constant temperature oven. Samples were taken 10 day/30 day respectively for impurity content determination.
(§8) Note: Purity Change=(Difference of sample purity at day 0 and sample purity after a certain period)/Sample purity at day 0×100%.

[3] = High humidity stability test; assay type: physicochemical; conditions: RH 92.5%; for Weight loss on drying / Purity Change: room temperature; for Purity Change: open dish
Excerpt: as §2, §3, §1, §4, §5, §6, §7
Weight loss on drying assay: Chinese Pharmacopoeia 2015, Volume IV, general principles 0831
as §8
The Crystal Form D of the compound of formula I was spread in open petri dish with thickness ≤5 mm, at room temperature, in constant temperature incubator of relative humidity (RH) 92.5%. Samples were taken 10 day/30 day for impurity content determination.

[4] = Long-term and accelerated stability test; assay type: physicochemical
Excerpt: as §3, §1, §4, §5, §6, §7
The Crystal Form D of the compound of formula I was packed with inner bag (pharmaceutical low density polyethylene bag) and outer bag (pharmaceutical polyester/aluminum/polyethylene composite film bag), placed under the following stability testing conditions for stability tests.

[5] = Pharmacokinetic study in dogs; assay type: in vivo; conditions: administered to dogs
[6] = Pharmacokinetic study in mice; assay type: in vivo; conditions: administered to mice
[7] = Pharmacokinetic study in monkeys; assay type: in vivo; conditions: administered to monkeys
[8] = Thermogravimetric Analysis (TGA); assay type: physicochemical; conditions: heating rate 10K/min, N2 purge, 35-500° C.
Procedure: “Thermogravimetric Analysis (TGA)” is a common method for determining the thermal stability of compounds. The TGA curve can be measured, for example, on a Mettler Toledo TGA1 instrument. The error of TGA may be within about ±0.5 wt %. The term “substantially identical” means that such error variations are considered. Exemplary test conditions are: temperature range is 35-500° C., heating rate is 10 K/min, and purge gas is nitrogen (99.99%).
TGA is collected on Mettler Toledo TGA1 Thermogravimetric Analyzer, purge gas is N2 (99.99%), 100 ml/min; heating rate: 10K/min; temperature range: 35-500° C.
In the curve, the sample began to decompose at about 230° C. and no weight loss was found before decomposition.

[9] = hydrochloric acid solution pH 1.2, 37° C.
[10] = hydrochloric acid solution pH 2.0, 37° C.
[11] = phosphate buffer pH 4.5, 37° C.
[12] = phosphate buffer pH 5.0, 37° C.
[13] = phosphate buffer pH 6.8, 37° C.
[14] = phosphate buffer pH 8.0, 37° C.
[15] = high temperature condition, up to 30 day
[16] = high humidity condition, up to 30 day

`CCCCCCO[C@@H](C)c1cccc(-c2csc(NC(=O)c3cc(Cl)c(/C=C(\C)C(=O)O)c(Cl)c3)n2)c1OC` [Crystal Form D, 4-phenylthiazole derivative] showed a Solubility ([1]; acetate buffer pH 4.0, 37° C.) of 10.6478 µg/mL (≈ 18 µM), a Solubility [1, 9] of 19.1353 µg/mL (≈ 32.3 µM) and a Solubility [1, 10] of 14.5872 µg/mL (≈ 24.7 µM). It also gave a Solubility [1, 11] of 11.4829 µg/mL (≈ 19.4 µM), a Solubility [1, 12] of 13.8229 µg/mL (≈ 23.4 µM) and a Solubility [1, 13] of 36.0017 µg/mL (≈ 60.9 µM). For the same compound, the Solubility [1, 14] was 110.5589 µg/mL (≈ 187 µM), the “Solubility compared with Crystal Form Y” value ([1]; simulated human gastric juice with various pH) was “significantly better than that of Crystal Form Y” and the Solubility ([1]; water (purified water), 37° C.) was 41.3607 µg/mL (≈ 69.9 µM). The “Purity Change” value ([2]; 10 day) was 0.04%, the “Purity Change” value ([2]; 30 day) was 0.03% and the “Change in crystal form (XRPD)” value [2, 15] was “no change in crystal form”. For the same compound, the “Change in purity (in words)” value [2, 15] was “did not show obvious change in purity”, the “Weight loss on drying” value ([3]; 0 day) was 0.31% and the “Weight loss on drying” value ([3]; 10 day) was 0.35%. The “Weight loss on drying” value ([3]; 30 day) was 0.36%, the “Purity Change” value ([3]; 10 day) was 0.05% and the “Purity Change” value ([3]; 30 day) was 0%. For the same compound, the “Change in crystal form (XRPD)” value [3, 16] was “no change in crystal form”, the “Change in purity (in words)” value [3, 16] was “did not show obvious change in purity” and the “Change in weight loss on drying (in words)” value [3, 16] was “little change in weight loss on drying”. For the same compound, the “Change in purity or crystal form (in words)” value ([4]; 6 month or more under long-term and accelerated conditions) was “no change in purity or crystal form”, the Chemical purity ([4]; Accelerated (40° C. ± 2° C./RH75% ± 5%), 0 day) was 99.83% and the Chemical purity ([4]; Accelerated (40° C. ± 2° C./RH75% ± 5%), 6 month) was 99.83%. The Chemical purity ([4]; Long-term (25° C. ± 2° C./RH60% ± 5%), 0 day) was 99.83%, the Chemical purity ([4]; Long-term (25° C. ± 2° C./RH60% ± 5%), 6 month) was 99.83% and the Chemical purity ([4]; Long-term (30° C. ± 2° C./RH65% ± 5%), 0 day) was 99.83%. For the same compound, the Chemical purity ([4]; Long-term (30° C. ± 2° C./RH65% ± 5%), 6 month) was 99.83%, the Pharmacokinetic properties [5] was “good pharmacokinetic properties” and the Pharmacokinetic properties [6] was “good pharmacokinetic properties”. The Pharmacokinetic properties [7] was “good pharmacokinetic properties” and the “Temperature at which the sample began to decompose (TGA)” value [8] was “about 230 °C”.

`CCCCCCO[C@@H](C)c1cccc(-c2csc(NC(=O)c3cc(Cl)c(/C=C(\C)C(=O)O)c(Cl)c3)n2)c1OC` [Crystal Form Y, 4-phenylthiazole derivative] showed a Solubility ([1]; acetate buffer pH 4.0, 37° C.) of 0.4327 µg/mL (≈ 0.731 µM), a Solubility [1, 9] of 0.7616 µg/mL (≈ 1.29 µM) and a Solubility [1, 10] of 0.4915 µg/mL (≈ 0.831 µM). The Solubility [1, 11] was 0.5623 µg/mL (≈ 0.951 µM), the Solubility [1, 12] was 0.6993 µg/mL (≈ 1.18 µM) and the Solubility [1, 13] was 3.2046 µg/mL (≈ 5.42 µM). For the same compound, the Solubility [1, 14] was 43.0713 µg/mL (≈ 72.8 µM) and the Solubility ([1]; water (purified water), 37° C.) was 5.2325 µg/mL (≈ 8.85 µM).
